Measurements published in patent publication US12458630B2, “Combination therapy for cancer” (The Regents of the University of California, priority 2020, dated 2025).
“Also recorded” adds a separate entry of the source.

Tests used:
[1] = test system: KC6141 mouse PDAC cells; assay: Cell viability assay (CCK-8); type: cell-based; settings: WT and IKKα KD 6141 cells on ECM, 0.5 mM glucose, 3 days; EIPA, IPI549 600 nM, MBQ-167 500 nM
Protocol: (§1) Extracellular Matrix (ECM) Preparation. Skin fibroblasts were seeded on 6/12/96-well plates. One day after plating, cells were switched into DMEM (with pyruvate) with 10% dialysed FBS supplemented with or without 500 μM ^3H-proline and 100 μM Vitamin C. Cells were cultured for 6 days with media renewal every 24 h. After six days, skin fibroblasts were removed by washing in 1 ml or 500 μl or 100 μl per well PBS with 0.5% (v/v) Triton X-100 and 20 mM NH4OH. ECM was washed five times with PBS before plating KC6141 cells. The following day, KC6141 cells were switched into the indicated medium for 24 or 72 hrs.
Cell viability assay. Cell viability was determined with Cell Counting Kit-8 assay (CCK-8 assay kit, Glpbio). Cells were plated in 96-well plates at a density of 3000 cells (MIA PaCa-2) or 1500 cells (KC6141) per well and incubated overnight prior to treatment. EIPA (10 μM), MRT68921 (600 nM) or erlotinib (2 μM, Sigma) were added to the wells for 72 and 96 hrs. Next, 10 μL of CCK-8 was added to each well. The optical density was read at 450 nm using a microplate reader (FilterMax F5, Molecular Devices, USA) at day 0, 1, 2, 3, and 4. For glutamine-deprivation assays, cells in 96-well plates were rinsed briefly in PBS and incubated in the 0.2 mM glutamine. Glutamine-free DMEM medium was supplemented with 0.2 mM glutamine in the presence of 10% dialysed FBS and 25 mM HEPES. For some conditions, the medium was supplemented with a final concentration of 2% BSA (Fraction V, fatty-acid-, nuclease and protease-free, Calbiochem). For all experiments, media were replaced every 24 hrs. Viable cell counts were obtained using CCK-8 assay described as above.
In some embodiments, cells were plated in 96-well plates coated with or without ECM at a density of 3000 cells (MIA PaCa-2, 1444, 1305, COLO 357/FG) or 1500 cells (KC6141) per well and incubated overnight prior to treatment. EIPA (10.5 μM), IPI549 (600 nM), MBQ-167 (500 nM), MRT68921 (600 nM) or erlotinib (2 μM, Sigma), ML385 (10 μM, Sigma), HCQ (10 μM or 80 μM) or their combinations were added to the wells for 24, 72 or 96 hrs. Next, 10 μL of CCK-8 was added to each well. The optical density was read at 450 nm using a microplate reader (FilterMax F5, Molecular Devices, USA) at day 0, 1, 2, 3, and 4. For glutamine-deprivation assays, cells in 96-well plates were rinsed briefly in PBS and incubated in the 0.2 mM glutamine. Glutamine-free DMEM medium was supplemented with 0.2 mM glutamine in the presence of 10% dialyzed FBS and 25 mM HEPES. For glucose-deprivation assays, cells in 96-well plates were rinsed briefly in PBS and incubated in the 0.5 mM glucose. Glucose-free DMEM medium was supplemented with 0.5 mM glucose in the presence of 10% dialyzed FBS and 25 mM HEPES. For some conditions, the medium was supplemented with a final concentration of 2% BSA (Fraction V, fatty-acid-, nuclease and protease-free, Calbiochem). For all experiments, media were replaced every 24 hrs. Viable cell counts were obtained using CCK-8 assay described as above.

[2] = test system: KC6141 cells; assay: Luminescence ATP detection assay; type: cell-based, mouse; settings: KC6141 cells on ECM, 0.5 mM glucose, 24 hrs; EIPA 10.5 μM, MBQ-167 500 nM, MRT68921 600 nM
Protocol: as §1
Luminescence ATP Detection Assay. Intracellular ATP level was determined with luminescence ATP detection assay system (PerkinElmer) according to manufacturer's protocol. Briefly, KC6141 cells were grown on 96-well plates coated with or without ECM in the presence of 100 μl 0.5 mM glucose medium with or without EIPA (10.5 μM), MBQ-167 (500 nM), MRT68921 (600 nM) or their combinations for 24 hrs. 50 μl mammalian cell lysis solution was added and shaken for 5 minutes. Next, 50 μl substrate solution was added and shaken for five minutes. Finally, plate was adapted in dark for 10 minutes and luminescence was measured.

[3] = test system: KC6141 cells; assay: L-Amino acid assay; type: cell-based, mouse; settings: KC6141 cells on ECM, 0.5 mM glucose, 24 hrs
Protocol: as §1
L-Amino Acid Assay. Total amount of free L-amino acids (except for glycine) were measured by L-Amino Acid Assay Kit (Colorimetric) (antibodies) according to manufacturer's protocol. Briefly, KC6141 cells were grown on 6-well plates coated with or without ECM and treated as above. The cells were resuspended at 10^6 cells/mL 1× Assay Buffer and were homogenized on ice and then centrifuged to remove debris. 50 μL of each L-Alanine standard or cell lysis was added into wells of a 96-well microtiter plate. Then 50 μL of Reaction Mix was added to each well. The well contents were mixed thoroughly and incubated for 90 minutes at 37° C. protected from light. The plate was read with a spectrophotometric microplate reader in the 540-570 nm range. The concentration of L-Amino Acids was calculated within samples by comparing the sample OD to the standard curve.

[4] = test system: MIA PaCa-2 cells; assay: Immunoblot of p62 and LC3 (autophagic degradation); type: cell-based, human; settings: IKKα-deficient (KD) MIA PaCa-2 cells, normal or starvation medium 2 hrs, +/- CQ
Protocol: Autophagy Induction. […] For starvation, cells were incubated in starvation medium (20 mM HEPES pH 7.4, 140 mM NaCl, 1 mM CaC2, 1 mM MgCl2, and 1% BSA) for 1.5 or 2 hrs. For glucose starvation, cells were washed three times with PBS and incubated in glucose-free DMEM containing 10% dialyzed FBS for 4 hrs. Immunoblot and immunoprecipitation. Cells were harvested and lysed in RIPA buffer (50 mM Tris-HCl, pH 7.4, 150 mM NaCl, 1% Triton X-100, 1% Na deoxycholate, 0.1% SDS, 1 mM EDTA) supplemented with complete protease inhibitor cocktail. Proteins were resolved on SDS-polyacrylamide gels, and then transferred to a polyvinylidene difluoride membrane. After blocking with 5% (w/v) fat free milk, the membrane was stained with the corresponding primary antibodies followed by incubation with the appropriate secondary HRP-conjugated antibodies, and development with ECL. Immunoreactive bands were detected by automatic X-ray film processor or KwikQuant Imager.

[5] = test system: COLO 357/FG cells; assay: LC3 puncta and p62/LC3 immunoblot; type: cell-based, human; settings: IKKα^low COLO 357/FG cells, normal or starvation medium 2 hrs, +/- CQ
Protocol: Autophagy Induction. […] For starvation, cells were incubated in starvation medium (20 mM HEPES pH 7.4, 140 mM NaCl, 1 mM CaC2, 1 mM MgCl2, and 1% BSA) for 1.5 or 2 hrs. For glucose starvation, cells were washed three times with PBS and incubated in glucose-free DMEM containing 10% dialyzed FBS for 4 hrs.
Immunoblot and immunoprecipitation. Cells were harvested and lysed in RIPA buffer (50 mM Tris-HCl, pH 7.4, 150 mM NaCl, 1% Triton X-100, 1% Na deoxycholate, 0.1% SDS, 1 mM EDTA) supplemented with complete protease inhibitor cocktail. Proteins were resolved on SDS-polyacrylamide gels, and then transferred to a polyvinylidene difluoride membrane. After blocking with 5% (w/v) fat free milk, the membrane was stained with the corresponding primary antibodies followed by incubation with the appropriate secondary HRP-conjugated antibodies, and development with ECL. Immunoreactive bands were detected by automatic X-ray film processor or KwikQuant Imager.
Data are presented as mean±SEM.

| Compound | cell viability enhanced by extracellular matrix (ECM) [1] | cellular ATP [2] | amino acid content [3] | p62 and LC3-II levels [4] | LC3 puncta, LC3 lipidation and p62 on starvation [5] | LC3 puncta, LC3 lipidation and p62 on starvation ([5]; listed as chloroquine) |
| --- | --- | --- | --- | --- | --- | --- |
| CCn1c2ccccc2c2cc(-n3nncc3-c3ccccc3)ccc21 (racemic) [MBQ-167] | suppressed | reduced | reduced |  |  |  |
| CCN(CC)CCCC(C)Nc1ccnc2cc(Cl)ccc12 (stereo not drawn) [CQ, chloroquine] |  |  |  | did not increase p62 and LC3-II; also recorded: failed to increase p62 and LC3-II | not affected | no effect |
